Legend:
[1] = molecular target: Luciferin 4-monooxygenase (Photinus pyralis, UniProt P08659)
Description: GSK_PKIS: Inhibition of Firefly Luciferase (Data from PubChem: AID 652016) [NIH NCATS]

[2] = molecular target: T1, Coelenterazine h 2-monooxygenase (Renilla reniformis, UniProt P27652)
T1 sequence (P27652 whole entry): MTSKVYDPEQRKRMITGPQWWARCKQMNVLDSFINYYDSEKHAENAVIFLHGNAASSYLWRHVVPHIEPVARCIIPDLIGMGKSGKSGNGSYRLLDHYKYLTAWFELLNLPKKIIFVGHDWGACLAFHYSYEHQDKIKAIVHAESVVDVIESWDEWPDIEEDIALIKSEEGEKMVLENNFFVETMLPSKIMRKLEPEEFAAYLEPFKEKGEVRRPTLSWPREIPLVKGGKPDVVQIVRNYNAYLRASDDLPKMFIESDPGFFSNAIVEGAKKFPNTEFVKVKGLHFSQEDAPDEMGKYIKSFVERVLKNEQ
Description: GSK_PKIS: Inhibition of Sea Pansy Luciferase (Data from PubChem: AID 652015) [NIH NCATS]

Sequence of Luciferin 4-monooxygenase (P08659 whole entry): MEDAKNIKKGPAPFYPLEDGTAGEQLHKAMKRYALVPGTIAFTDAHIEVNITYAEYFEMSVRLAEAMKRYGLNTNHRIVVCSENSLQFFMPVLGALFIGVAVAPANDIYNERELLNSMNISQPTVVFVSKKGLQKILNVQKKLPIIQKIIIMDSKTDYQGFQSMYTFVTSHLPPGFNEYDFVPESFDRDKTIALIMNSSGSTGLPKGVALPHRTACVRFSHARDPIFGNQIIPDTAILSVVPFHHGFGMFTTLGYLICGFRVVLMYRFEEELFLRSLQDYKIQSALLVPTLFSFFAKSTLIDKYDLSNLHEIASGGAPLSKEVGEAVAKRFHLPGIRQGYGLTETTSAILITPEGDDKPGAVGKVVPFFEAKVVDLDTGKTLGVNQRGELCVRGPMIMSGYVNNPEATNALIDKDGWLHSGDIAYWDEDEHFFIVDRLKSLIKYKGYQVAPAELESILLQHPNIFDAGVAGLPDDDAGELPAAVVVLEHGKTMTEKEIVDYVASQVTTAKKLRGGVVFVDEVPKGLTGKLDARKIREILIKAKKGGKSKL

For `CCC(=O)Nc1ccc(C)c(-c2ccc(C(=O)NCC3CC3)cc2)c1` [GW796921X], the AC50 ([1]; read-out: AC50) was 18.3 µM and the AC50 [2] was “Phenotype: Inactive; Curve_Description: None”.
`CS(=O)(=O)CCNCc1coc(-c2ccc3ncnc(Nc4ccc(OCc5ccccc5)cc4)c3c2)c1.Cl` [GW566221A] was tested, and the AC50 ([1]; read-out: AC50) was 13 µM and the AC50 [2] was “Phenotype: Inactive; Curve_Description: None”.
For `FC(F)(F)c1cccc(-c2nn3ncccc3c2-c2ccnc(Nc3ccc4c(c3)OCCO4)n2)c1` [GW827102X], the AC50 ([1]; read-out: AC50) was 32.6 µM and the AC50 [2] was “Phenotype: Inactive; Curve_Description: None”.
For `CCCN1CCC=C(c2ccc(Nc3nc(Nc4ccccc4C(N)=O)c4cc[nH]c4n3)c(C)c2)C1` [GSK-994854A], the AC50 [1] was “Phenotype: Inactive; Curve_Description: None” and the AC50 ([2]; read-out: AC50) was 46.1 µM.
For `CCS(=O)(=O)c1ccc(OC)c(Nc2ncc(-c3ccccc3Cl)o2)c1` [GW622055X], the AC50 [1] was “Phenotype: Inactive; Curve_Description: None” and the AC50 ([2]; read-out: AC50) was 18.3 µM.
With `COc1c(C(N)=O)cc(-c2ccc(Cl)cc2)cc1-c1ccc(S(N)(=O)=O)cc1` [GSK-711701A] the AC50 ([1]; read-out: AC50) was 29.1 µM and the AC50 [2] was “Phenotype: Inactive; Curve_Description: None”.
For `CN(C)CCOc1ccc(-c2nc(-c3ccncc3)c(-c3ccc4c(c3)CC/C4=N\O)[nH]2)cc1`, the AC50 ([1]; read-out: AC50) was 14.6 µM and the AC50 ([2]; read-out: AC50) was 29.1 µM.
`CCS(=O)(=O)c1ccc(OC)c(Nc2ncc(-c3cccc(C(C)=O)c3)o2)c1` [GW621431X] was tested, and the AC50 [1] was “Phenotype: Inactive; Curve_Description: None” and the AC50 [2] was “Phenotype: Inactive; Curve_Description: None”.
In the case of `COc1cc2ncn(-c3cc(OCc4cccs4)c(C(N)=O)s3)c2cc1OC` [GSK-312948A], the AC50 [1] was “Phenotype: Inactive; Curve_Description: None” and the AC50 ([2]; read-out: AC50) was 9.19 µM.
For `CCCN(CCS(C)(=O)=O)Cc1ccc(-c2ccc3ncnc(Nc4ccc(OCc5cccc(F)c5)c(Cl)c4)c3c2)o1.Cl` [GW621823A], the AC50 ([1]; read-out: AC50) was 20.6 µM and the AC50 [2] was “Phenotype: Inactive; Curve_Description: None”.
With `CNC(=O)c1cc(-c2ccc(F)cc2)cc(-c2ccc(S(=O)(=O)N3CCCC3)cc2)c1N` [GSK-635416A] the AC50 [1] was “Phenotype: Inactive; Curve_Description: None” and the AC50 [2] was “Phenotype: Activator; Curve_Description: None”.
In the case of `O=C(O)C(F)(F)F.O=C(O[C@H]1CN[C@H](C#Cc2cc3ncnc(Nc4ccc(Cc5ccccc5)cc4)c3s2)C1)N1CCOCC1` [GSK-238583A], the AC50 [1] was “Phenotype: Inactive; Curve_Description: None” and the AC50 ([2]; read-out: AC50) was 23.1 µM.
`Clc1ccc(CNc2nccc(-c3cnn4ncccc34)n2)cc1` [GW781673X] was tested, and the AC50 [1] was “Phenotype: Inactive; Curve_Description: None” and the AC50 [2] was “Phenotype: Inactive; Curve_Description: None”.
With `O=C(Nc1n[nH]c2nc(-c3ccc(O)cc3)c(Br)cc12)C1CC1` the AC50 ([1]; read-out: AC50) was 20.6 µM and the AC50 [2] was “Phenotype: Inactive; Curve_Description: None”.
With `COc1cccc(-n2ncc3c(N/N=C/c4ccc(C(=O)NCCN(C)C)cc4)ncnc32)c1.Cl` [GW784307A] the AC50 ([1]; read-out: AC50) was 16.3 µM and the AC50 [2] was “Phenotype: Inactive; Curve_Description: None”.
For `CN1CCC(C(=O)Nc2n[nH]c3nc(-c4ccc(O)cc4)c(Br)cc23)CC1`, the AC50 [1] was “Phenotype: Inactive; Curve_Description: None” and the AC50 ([2]; read-out: AC50) was 32.6 µM.
`Cc1ccc(O)cc1Nc1ccnc2cc(-c3ccccn3)ccc12` [GW440139A] showed an AC50 ([1]; read-out: AC50) of 20.6 µM and an AC50 ([2]; read-out: AC50) of 23.1 µM.
For `FC(F)(F)CNc1nccc(-c2cnn3ncccc23)n1` [GW683003X], the AC50 [1] was “Phenotype: Activator; Curve_Description: None” and the AC50 [2] was “Phenotype: Inactive; Curve_Description: None”.
`COc1ccc2[nH]c3c4[nH]c5ccc(OC)cc5c4c4c(c3c2c1)C(=O)NC4=O` [GW296115X] was tested, and the AC50 [1] was “Phenotype: Inactive; Curve_Description: None” and the AC50 ([2]; read-out: AC50) was 25.9 µM.
`Fc1cccc(COc2ccc(Nc3ncncc3C#Cc3ccccc3)cc2Cl)c1` [GW651576X] was tested, and the AC50 [1] was “Phenotype: Inactive; Curve_Description: None” and the AC50 [2] was “Phenotype: Inactive; Curve_Description: None”.
`Cc1cccc(-c2n[nH]cc2-c2ccc3ncccc3n2)n1` [GW786460X] was tested, and the AC50 [1] was “Phenotype: Inactive; Curve_Description: None” and the AC50 [2] was “Phenotype: Inactive; Curve_Description: None”.
With `NS(=O)(=O)c1cccc(N/C=C2\C(=O)Nc3ccccc32)c1` [GW275616X] the AC50 ([1]; read-out: AC50) was 18.3 µM and the AC50 [2] was “Phenotype: Inactive; Curve_Description: None”.
For `Cc1cccc2c1NC(=O)/C2=N\Nc1ccc(S(N)(=O)=O)cc1` [GW282536X], the AC50 [1] was “Phenotype: Inactive; Curve_Description: None” and the AC50 ([2]; read-out: AC50) was 18.3 µM.
For `Cc1cc(O)cc(C)c1/C=C/c1cncc(-c2nn[nH]n2)c1.Cl` [GW441806A], the AC50 ([1]; read-out: AC50) was 29.1 µM and the AC50 [2] was “Phenotype: Inactive; Curve_Description: None”.
For `CC(=O)Nc1cccc(C#Cc2cncnc2Nc2ccc(OCc3cccc(F)c3)c(Cl)c2)c1` [GW703087X], the AC50 [1] was “Phenotype: Inactive; Curve_Description: None” and the AC50 [2] was “Phenotype: Inactive; Curve_Description: None”.
With `COC(=O)Nc1nc2ccc(Oc3ccc(NC(=O)Nc4cc(C(F)(F)F)ccc4F)cc3)cc2s1.Cl` [GW693917A] the AC50 ([1]; read-out: AC50) was 13 µM and the AC50 [2] was “Phenotype: Inactive; Curve_Description: None”.
`COc1cc(C=NNc2ncnc3c2cnn3Cc2ccccc2)ccc1O` [GW643971X] was tested, and the AC50 ([1]; read-out: AC50) was 29.1 µM and the AC50 [2] was “Phenotype: Activator; Curve_Description: None”.
In the case of `COc1ccc2cc(-c3c(-c4ccncc4)nc(-c4ccc([S+](C)[O-])cc4C)n3C)ccc2c1` (stereo not given), the AC50 [1] was “Phenotype: Inactive; Curve_Description: None” and the AC50 ([2]; read-out: AC50) was 41.1 µM.
With `CCc1ccc(Oc2nccc(-c3c(-c4ccc(F)cc4)ncn3C3CCNCC3)n2)cc1` the AC50 [1] was “Phenotype: Inactive; Curve_Description: None” and the AC50 [2] was “Phenotype: Inactive; Curve_Description: None”.
With `CNC(=O)c1cncc(/C=C/c2ccccc2C)c1` [GW445015X] the AC50 [1] was “Phenotype: Inactive; Curve_Description: None” and the AC50 [2] was “Phenotype: Inactive; Curve_Description: None”.
`c1ccc(Cc2nc3ccc(Nc4ncnc5ccccc45)cc3[nH]2)cc1` was tested, and the AC50 ([1]; read-out: AC50) was 16.3 µM and the AC50 ([2]; read-out: AC50) was 18.3 µM.
In the case of `CCN1CCC(CC(=O)Nc2n[nH]c3nc(-c4cccs4)c(Br)cc23)CC1.O=C(O)C(O)C(O)C(=O)O`, the AC50 [1] was “Phenotype: Inactive; Curve_Description: None” and the AC50 ([2]; read-out: AC50) was 29.1 µM.
With `Nc1ncnc2occ(-c3ccc(NC(=O)Nc4cc(C(F)(F)F)ccc4F)cc3)c12` [GW770249X] the AC50 [1] was “Phenotype: Inactive; Curve_Description: None” and the AC50 [2] was “Phenotype: Inactive; Curve_Description: None”.
For `Nc1ncnc2occ(-c3ccc(NC(=O)Nc4cccc(C(F)(F)F)c4)cc3)c12` [GW795493X], the AC50 [1] was “Phenotype: Inactive; Curve_Description: None” and the AC50 [2] was “Phenotype: Inactive; Curve_Description: None”.
In the case of `Fc1ccc(-c2ncn(C3CCNCC3)c2-c2ccnc(Oc3ccc4c(c3)OCO4)n2)cc1`, the AC50 ([1]; read-out: AC50) was 32.6 µM and the AC50 [2] was “Phenotype: Inactive; Curve_Description: None”.
For `C#Cc1cccc(Nc2ncnc3ccc(OCCCCNCCS(C)(=O)=O)cc23)c1` [GW680191X], the AC50 [1] was “Phenotype: Inactive; Curve_Description: None” and the AC50 ([2]; read-out: AC50) was 29.1 µM.
For `CN(C)CCCNc1nccc(-c2c(-c3ccc(F)cc3)nn3cc(C(F)(F)F)ccc23)n1.CS(=O)(=O)O` [GW618013A], the AC50 ([1]; read-out: AC50) was 41.1 µM and the AC50 [2] was “Phenotype: Inactive; Curve_Description: None”.
With `Nc1nc(-c2ccccn2)c(-c2ccc3ncccc3n2)s1` [GW693481X] the AC50 ([1]; read-out: AC50) was 32.6 µM and the AC50 [2] was “Phenotype: Inactive; Curve_Description: None”.
For `CN1CCC(C(=O)Nc2n[nH]c3nc(-c4ccc(O)cc4)c(Br)cc23)CC1.O=C(O)/C=C\C(=O)O`, the AC50 [1] was “Phenotype: Inactive; Curve_Description: None” and the AC50 [2] was “Phenotype: Inactive; Curve_Description: None”.
In the case of `c1ccc(-c2n[nH]cc2-c2ccnc(-c3ccc(OCCn4ccnc4)cc3)c2)nc1` [GW711782X], the AC50 [1] was “Phenotype: Inactive; Curve_Description: None” and the AC50 [2] was “Phenotype: Inactive; Curve_Description: None”.
For `COc1cc(Nc2ncc3c(C)nc(-c4cccc(Oc5ccccc5)c4)n3n2)cc(OC)c1OC` [GW861893X], the AC50 [1] was “Phenotype: Inactive; Curve_Description: None” and the AC50 [2] was “Phenotype: Inactive; Curve_Description: None”.
For `O=C(O)C(F)(F)F.[O-][S+]1CCN(Cc2ccc(-c3ccc4ncnc(Nc5ccc(OCc6cccc(F)c6)c(Cl)c5)c4c3)o2)CC1` [GW576609A], the AC50 ([1]; read-out: AC50) was 18.3 µM and the AC50 [2] was “Phenotype: Inactive; Curve_Description: None”.
With `NC(=O)c1ccc(Oc2nccc(-c3c(-c4ccc(F)cc4)ncn3C3CCNCC3)n2)cc1` the AC50 ([1]; read-out: AC50) was 29.1 µM and the AC50 [2] was “Phenotype: Inactive; Curve_Description: None”.
In the case of `COc1cc2c(cc1Nc1nc(Nc3ccsc3C(N)=O)c3cc[nH]c3n1)N(C(=O)CN(C)C)CCC2` [GSK-2110236A], the AC50 [1] was “Phenotype: Inactive; Curve_Description: None” and the AC50 ([2]; read-out: AC50) was 46.1 µM.
In the case of `Nc1nccc(-c2c(-c3ccc(F)cc3)nn3cc(C(F)(F)F)ccc23)n1` [GW568326X], the AC50 [1] was “Phenotype: Inactive; Curve_Description: None” and the AC50 [2] was “Phenotype: Inactive; Curve_Description: None”.
With `C[C@@H](Oc1cc(-n2cnc3ccc(OC[C@@H](O)CO)cc32)sc1C(N)=O)c1ccccc1Cl` [GSK-978744A] the AC50 [1] was “Phenotype: Inactive; Curve_Description: None” and the AC50 [2] was “Phenotype: Inactive; Curve_Description: None”.
`CCn1c(-c2nonc2N)nc2c(C#CC(C)(C)O)nc(CN3CCCC3)cc21` [GSK-1000163A] was tested, and the AC50 [1] was “Phenotype: Inactive; Curve_Description: None” and the AC50 [2] was “Phenotype: Inactive; Curve_Description: None”.
With `COc1ccc2ncn(-c3cc(O[C@H](C)c4ccccc4Cl)c(C(N)=O)s3)c2c1` [GSK-317314A] the AC50 [1] was “Phenotype: Inactive; Curve_Description: None” and the AC50 [2] was “Phenotype: Inactive; Curve_Description: None”.
`CC1=C(C(=O)Nc2ccc3[nH]nc(C)c3c2)C(c2ccc(C(F)(F)F)cc2)CC(=O)N1` (stereo not given) [GSK-466314A] was tested, and the AC50 [1] was “Phenotype: Inactive; Curve_Description: None” and the AC50 [2] was “Phenotype: Inactive; Curve_Description: None”.
For `NS(=O)(=O)c1ccc(N/N=C2\C(=O)Nc3ccc(C(=O)NCCCn4ccnc4)cc32)cc1` [GW290597X], the AC50 [1] was “Phenotype: Inactive; Curve_Description: None” and the AC50 ([2]; read-out: AC50) was 18.3 µM.
